Assay results published in the supplement of paper PMC10307832.

Tests used:
Assay in all cases: relative viability (nuclei count vs DMSO), 5 days (fraction); higher = more cells survive
[1] = compound: C1=CC2=C(C=C(C(=C2N=C1)O)N=NC3=CC4=C(C=C3)C=C(C=C4)S(=O)(=O)O)S(=O)(=O)O
How it was run: (§1)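 Cells of lung cancer lines were placed in 1536-well plates and kept overnight at 37 °C. Pinning then delivered five library-drug doses (not always all listed), spaced by √10, onto plates anchored with vehicle, and the cells were left 5 days without changing medium. One step fixed, permeabilised and stained them with Hoechst, and MetaXpress counted nuclei in 4× images. Viability, as a median over plates, is treated-well nuclei divided by vehicle-well nuclei, with acceptance only at control CV below 25% and at least one doubling.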

AT-7519 = compound: O=C(NC1CCNCC1)c1n[nH]cc1NC(=O)c1c(Cl)cccc1Cl [AT-7519]
How it was run: as §1

[2] = compound: C1=CC2=C(C=C(C(=C2N=C1)O)N=NC3=CC4=C(C=C3)C=C(C=C4)S(=O)(=O)O)S(=O)(=O)O + CC(=O)Nc1cccc(-n2c(=O)n(C3CC3)c(=O)c3c(Nc4ccc(I)cc4F)n(C)c(=O)c(C)c32)c1 [Trametinib] (partner 0.02 µM)
How it was run: (§2)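 A single step with final 0.05% Triton X-100, 1% formaldehyde and 1 ug/ml Hoechst fixed the cells and stained nuclei 5 days after treatment. Lung cancer cell lines in 1536-well plates had been treated by pin tool the day after seeding with one drug alone or a fixed anchor-drug dose plus five library-drug doses (not always all listed) in √10 steps, and nuclei were counted on 4× images. Relative viability is the ratio of nuclei in treated wells to nuclei in vehicle wells, taken as the median of duplicate plates.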

AT-7519 + Navitoclax = compound: O=C(NC1CCNCC1)c1n[nH]cc1NC(=O)c1c(Cl)cccc1Cl [AT-7519] + CC1(C)CCC(c2ccc(Cl)cc2)=C(CN2CCN(c3ccc(C(=O)NS(=O)(=O)c4ccc(N[C@H](CCN5CCOCC5)CSc5ccccc5)c(S(=O)(=O)C(F)(F)F)c4)cc3)CC2)C1 [Navitoclax] (partner 0.5 µM)
How it was run: as §2

| Cell Line | relative viability ([1]; 0.08 µM) | relative viability ([1]; 0.253 µM) | relative viability ([1]; 0.8 µM) | relative viability ([1]; 2.53 µM) | relative viability ([1]; 8 µM) | relative viability (AT-7519; 0.01 µM) | relative viability (AT-7519; 0.03162 µM) | relative viability (AT-7519; 0.3162 µM) | relative viability (AT-7519; 1 µM) | relative viability ([2]; first compound 0.08 µM) | relative viability ([2]; first compound 0.253 µM) | relative viability ([2]; first compound 0.8 µM) | relative viability ([2]; first compound 2.53 µM) | relative viability ([2]; first compound 8 µM) | relative viability (AT-7519 + Navitoclax; first compound 0.01 µM) | relative viability (AT-7519 + Navitoclax; first compound 0.03162 µM) | relative viability (AT-7519 + Navitoclax; first compound 0.3162 µM) | relative viability (AT-7519 + Navitoclax; first compound 1 µM) |
| --- | --- | --- | --- | --- | --- | --- | --- | --- | --- | --- | --- | --- | --- | --- | --- | --- | --- | --- |
| NCI-H1793 | 1.1 | 0.967 | 0.859 | 1.02 | 0.843 | 0.854 | 0.9 | 0.905 | 0.832 | 0.53 | 0.387 | 0.452 | 0.347 | 0.348 | 0.352 | 0.416 | 0.313 | 0.365 |
| LC-2-ad | 1.02 | 0.902 | 0.978 | 0.995 | 0.945 | 0.996 | 0.99 | 1.01 | 0.909 | 0.932 | 0.851 | 0.941 | 0.892 | 0.98 | 0.312 | 0.487 | 0.367 | 0.214 |
| COR-L 105 | 0.988 | 0.78 | 0.95 | 1.06 | 0.865 | 0.924 | 0.933 | 0.769 | 0.54 | 0.514 | 0.437 | 0.469 | 0.48 | 0.476 | 0.766 | 0.721 | 0.644 | 0.347 |
| NCI-H1355 | 1.08 | 0.982 | 0.965 | 0.993 | 0.856 | 1.01 | 0.961 | 0.992 | 1.05 | 0.41 | 0.411 | 0.431 | 0.416 | 0.476 | 0.984 | 0.873 | 1.09 | 0.865 |
| H3255 | 1.01 | 0.965 | 1.01 | 1.03 | 1.04 | 1.04 | 0.96 | 0.969 | 0.838 | 0.588 | 0.614 | 0.66 | 0.654 | 0.624 | 0.463 | 0.491 | 0.647 | 0.431 |
| NCI-H1993 | 1.08 | 0.965 | 0.875 | 0.955 | 0.944 | 0.857 | 0.855 | 0.776 | 0.528 | 0.49 | 0.465 | 0.575 | 0.539 | 0.504 | 0.895 | 0.781 | 0.984 | 0.548 |
| NCI-H1734 | 1.12 | 0.981 | 0.951 | 0.92 | 0.996 | 1.06 | 0.918 | 0.782 | 0.562 | 0.728 | 0.654 | 0.687 | 0.72 | 0.694 | 0.893 | 0.758 | 0.686 | 0.452 |
| HOP-62 | 1.06 | 0.931 | 0.964 | 1.03 | 1.04 | 0.949 | 0.949 | 1.04 | 1.04 | 0.428 | 0.392 | 0.452 | 0.37 | 0.359 | 0.824 | 0.983 | 1.01 | 0.923 |
| LOU-NH91 | 0.964 | 0.978 | 0.99 | 0.989 | 0.948 | 0.93 | 0.963 | 0.956 | 0.933 | 0.841 | 0.77 | 0.759 | 0.733 | 0.797 | 0.668 | 0.629 | 0.693 | 0.525 |
| ChaGo-K-1 | 1.03 | 0.905 | 0.937 | 1.02 | 0.901 | 1.01 | 0.926 | 0.996 | 0.942 | 0.983 | 0.908 | 0.938 | 0.875 | 0.798 | 0.971 | 1.39 | 0.726 | 0.982 |
| NCI-H2228 | 1.31 | 1.03 | 0.907 | 1.01 | 0.957 | 1.15 | 0.926 | 0.936 | 0.591 | 0.81 | 0.453 | 0.603 | 0.443 | 0.703 | 1.08 | 0.72 | 1.04 | 0.437 |
| PC-14 | 1.02 | 0.95 | 0.944 | 1.07 | 0.94 | 0.971 | 0.94 | 0.928 | 0.714 | 0.743 | 0.688 | 0.782 | 0.838 | 0.69 | 0.994 | 1.03 | 0.952 | 0.719 |
| NCI-H1437 | 1 | 1 | 0.988 | 1.05 | 0.912 | 0.985 | 0.99 | 0.999 | 0.879 | 0.528 | 0.477 | 0.524 | 0.623 | 0.641 | 1.03 | 1.08 | 1.1 | 0.455 |
| NCI-H460 | 1.07 | 0.992 | 0.977 | 0.987 | 0.945 | 1 | 0.89 | 0.982 | 0.601 | 0.187 | 0.0935 | 0.138 | 0.141 | 0.169 | 0.965 | 1 | 0.932 | 0.0202 |
| NCI-H1666 | 1.04 | 1.03 | 0.991 | 0.966 | 1.02 | 0.948 | 0.906 | 0.99 | 0.752 | 0.874 | 0.877 | 0.861 | 0.861 | 0.903 | 0.893 | 0.758 | 0.724 | 0.316 |
| NCI-H1651 | 1.03 | 0.966 | 0.961 | 0.991 | 0.931 | 0.959 | 0.897 | 1.02 | 0.997 | 0.799 | 0.839 | 0.832 | 0.848 | 0.744 | 0.983 | 1.08 | 0.997 | 0.882 |
| NCI-H1755 | 1.03 | 0.962 | 0.949 | 1.01 | 1.03 | 1.01 | 0.994 | 1.02 | 0.963 | 0.761 | 0.754 | 0.739 | 0.761 | 0.732 | 1.05 | 0.983 | 1.02 | 0.986 |
